Test results published in PubChem BioAssay (NCI).
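Cells were grown in 96-well plates and exposed to each compound for 48 hours at five concentrations; endpoints were interpolated linearly between bracketing concentrations, or set to the highest concentration if not reached. TGI: total growth inhibition.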 Where a SMILES comes first, the peptide text is derived from it. The star is where a group is joined. Boc = CC(C)(C)OC(=O)*; OBn = c1ccc(CO*)cc1

How the values were obtained:
Assay in all cases: NCI tumour cell line growth inhibition, 48 h
HS 578T breast = tested on: HS 578T breast
MOLT-4 leukemia = tested on: MOLT-4 leukemia
A549 NSCLC = tested on: A549 NSCLC
EKVX NSCLC = tested on: EKVX NSCLC
M14 melanoma = tested on: M14 melanoma
HT29 colon = tested on: HT29 colon
SF-295 CNS = tested on: SF-295 CNS
SN12C renal = tested on: SN12C renal
KM12 colon = tested on: KM12 colon
TK-10 renal = tested on: TK-10 renal

SMILES	TGI (HS 578T breast) [µM]	TGI (MOLT-4 leukemia) [µM]	TGI (A549 NSCLC) [µM]	TGI (EKVX NSCLC) [µM]	TGI (M14 melanoma) [µM]	TGI (HT29 colon) [µM]	TGI (SF-295 CNS) [µM]	TGI (SN12C renal) [µM]	TGI (KM12 colon) [µM]	TGI (TK-10 renal) [µM]
O=c1[nH]c(N/N=C\C(O)C(O)C(O)CO)nc2ccccc12 (stereo unspecified)	> 100	> 100	> 100	> 100	> 100	> 100	> 100	> 100	> 100	> 100
CC(=O)Oc1ccc(C2COc3cc(OC(C)=O)c(OC(C)=O)cc3C2)cc1 (stereo unspecified)		62	57.3	32		> 81.5	58.5	52	69.5	
Cc1cc(=O)oc2cc(O)ccc12	> 100	> 100	> 100	> 100		> 100	> 100	> 100	> 100	> 100
C[C@]12CC[C@@H]3c4ccc(OC(=O)c5ccccc5)cc4CC[C@H]3[C@@H]1CC[C@@H]2Oc1c2ccccc2nc2ccccc12	> 50	26.7	13.2	8.96	15.9	12.6	> 50		44	> 50
Cc1c(-c2ccccc2)c(C#N)c2nnc(C(N)=O)c(N)n12	> 100	> 100	> 100	> 100	> 100	> 100	> 100	> 100	> 100	> 100
CCO/C(O)=C(/C(=N)N1CCCC1)C(=O)Nc1cccc(C(F)(F)F)c1	70.6	> 100	> 100	> 100	> 100	> 100	> 100	> 100	> 100	> 100
COc1cc2c(/C=C3/C(=O)N(c4ccccc4)c4ccccc43)c(Cl)[nH]c2cc1C	> 100	9	> 38.4	> 31.4	12.9	> 31	> 22.3	6.29	8.07	12.8
O=C1C(Br)=C(c2ccccc2)S(=O)c2ccccc21 (stereo unspecified)	80.6		62	33.9	27	63.5	34.6	31	30.7	32.2
OC12CC/C(=N/OCc3ccccc3)CC1c1ccccc12 (stereo unspecified)		> 100	> 100	> 100	> 100	> 100	> 100	> 100	> 100	> 100
CC(C)N(C)C(=O)C12C3C4C1C1C2C3C41C#N (stereo unspecified)	> 100	> 100	> 100	> 100	> 100	> 100	> 100	> 100	> 100	> 100
CC(=Nc1ccncc1)C(C)=Nc1ccncc1	98.9	52.7	> 100	48.7	34.8	38.2	> 100	30	> 100	> 100
CCc1ccc2c(c1)CC1(C2)Cc2cc3c(cc2C1)C(=O)CC3 (stereo unspecified)	> 100		71.8	> 100	> 100	23.9	65.3	89.6	> 100	> 100
[N-]=[N+]=Nc1ccc(CNc2cc(=O)[nH]c(=O)[nH]2)cc1	> 100	> 100	> 100	> 100	> 100	> 100	> 100	> 100	> 100	> 100
Cc1ccc(SC(=O)N2C(=S)NC(=NC3CCCCC3)C23CCCCC3)cc1	> 100		> 100	> 100	> 100	> 100	> 100	> 100	> 100	> 100
O=c1[nH]nc(Cc2ccccc2)n1-n1cnnc1		> 100	> 100	> 100	> 100	> 100	> 100	> 100	> 100	> 100
Cc1ccc(S(=O)(=O)c2c(O)c3ccccc3n(C)c2=O)cc1	> 100		> 100	> 100	> 100	> 100	> 100	> 100	> 100	
Nc1cc(N2CCCC2)nc(=O)n1Cc1ccccc1		> 100	> 100	> 100	> 100	> 100	> 100	> 100	> 100	> 100
CCOc1cc(C2CC(c3ccc(NS(=O)(=O)c4cc([N+](=O)[O-])ccc4C)cc3)=NN2)ccc1O (stereo unspecified)	> 100	48.8	> 100	53.3	43.8	72.2		65.2		
CC(C)(C)OC(=O)NC(Cc1ccccc1)C(=O)NC(Cc1ccccc1)C(=O)NCC(=O)OCc1ccccc1 (stereo not drawn) (Boc-Phe-Phe-Gly-OBn; configuration not given here)		56		> 100	62.7	40.4		85.9		53.1
CC(=O)O[C@H]1C(=O)[C@@]2(C)[C@H]([C@H](OC(=O)c3ccccc3)[C@]3(O)C[C@H](OC(=O)[C@H](O)[C@@H](NC(=O)CC(C)(C)C)c4ccccc4)C(C)=C1C3(C)C)C1(OC(C)=O)CO[C@@H]1C[C@@H]2O (stereo partly specified)	0.00653	> 3.96	> 10	> 10	> 10	0.0133		> 10		> 10
COc1cccc(-c2cc(=O)c3ccc(C)nc3[nH]2)c1	> 100	> 94.7	> 100	> 100	> 100	> 100	> 100	> 100		> 100
COc1ccc(/C=C2\N=C(c3ccccc3)N(C3Nc4cc5c(cc4S3)NC(N3C(=O)/C(=C/c4ccc(OC)cc4)N=C3c3ccccc3)S5)C2=O)cc1 (stereo unspecified)	> 100	> 100	> 100	99.5	> 100	> 100	> 100		> 100	> 100
